Experimental data from patent publication US9353091B2 (priority 2009, dated 2016).

Tests used:
[1] = biological target: T1, HCV polymerase 1A (Δ21 NS5B) (Hepatitis C virus genotype 1a, UniProt P27958); assay: HCV Polymerase Inhibition Assay (1a); assay type: biochemical
T1 construct: 20 to 50 nM Δ21 NS5B
Method: (§1) Reaction volume was 50 μL. The reaction was terminated by the addition of 1 volume of 4 mM spermine in 10 mM Tris-Cl pH 8.0, 1 mM EDTA. After incubation for at least 15 minutes at room temperature, the precipitated RNA was captured by filtering through a GF/B filter (Millipore) in a 96 well format. The filter plate was washed three times with 200 μL, each of 2 mM spermine, 10 mM Tris-Cl pH 8.0, 1 mM EDTA, and 2 times with ethanol. After air-drying, 30 μL, of Microscint 20 scintillation cocktail (Packard) was added to each well, and the retained cpm were determined by scintillation counting. […] Retained cpm were plotted vs. inhibitor concentration and fit to equation 1 using non-linear regression (ref. 1) to obtain the IC50 values: Retained cpm=A[sqrt{(IC50+It−Et)^2+4*IC50*Et}−(IC50+It−Et)]
(§2) Ref. Morrison, J. F. and S. R. Stone. 1985. Approaches to the study and analysis of the inhibition of enzymes by slow- and tight-binding inhibitors. Comments Mol. Cell. Biophys. 2: 347-368.
(§3) The sequence of the template RNA used was: 5′-[…] […] […] […] […] […] […] […] […] […] […] […] […] […] […] […] […]-3′ (SEQ ID NO: 1)

[2] = biological target: T2, HCV polymerase 1B (Δ21 NS5B) (Hepatitis C virus genotype 1b, UniProt P26663); assay: HCV Polymerase Inhibition Assay (1b); assay type: biochemical
T2 construct: 20 to 50 nM Δ21 NS5B
T2 sequence (P26663 2420-2989, stated change not applied): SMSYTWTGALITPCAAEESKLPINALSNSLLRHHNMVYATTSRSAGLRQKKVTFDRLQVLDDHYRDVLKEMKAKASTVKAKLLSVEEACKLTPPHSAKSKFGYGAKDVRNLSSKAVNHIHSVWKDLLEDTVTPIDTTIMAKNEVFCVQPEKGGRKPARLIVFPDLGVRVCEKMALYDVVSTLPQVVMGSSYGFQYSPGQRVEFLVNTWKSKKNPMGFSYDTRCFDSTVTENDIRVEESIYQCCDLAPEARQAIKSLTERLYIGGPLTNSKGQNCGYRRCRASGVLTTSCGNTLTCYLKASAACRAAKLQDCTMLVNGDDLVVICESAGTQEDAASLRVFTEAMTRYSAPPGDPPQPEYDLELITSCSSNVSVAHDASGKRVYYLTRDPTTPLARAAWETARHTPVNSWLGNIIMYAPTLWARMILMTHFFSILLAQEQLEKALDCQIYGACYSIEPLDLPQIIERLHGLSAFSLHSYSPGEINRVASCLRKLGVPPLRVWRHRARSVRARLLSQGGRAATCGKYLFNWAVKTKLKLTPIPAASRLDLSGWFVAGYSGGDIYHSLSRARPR
Method: as §1, §2, §3

[3] = test system: genotype 1a-H77 subgenomic replicon cell line; assay: HCV Polymerase Replicon Assay (genotype 1a-H77, luciferase reporter); assay type: cell-based; conditions: Hepatitis C virus, 72 h, 1a-H77 replicon, three days
[4] = test system: genotype 1b-Con1 subgenomic replicon cell line; assay: HCV Polymerase Replicon Assay (genotype 1b-Con1, luciferase reporter); assay type: cell-based; conditions: Hepatitis C virus, 72 h, 1b-Con1 replicon, three days

T1 sequence (P27958 2421-2990, stated change not applied): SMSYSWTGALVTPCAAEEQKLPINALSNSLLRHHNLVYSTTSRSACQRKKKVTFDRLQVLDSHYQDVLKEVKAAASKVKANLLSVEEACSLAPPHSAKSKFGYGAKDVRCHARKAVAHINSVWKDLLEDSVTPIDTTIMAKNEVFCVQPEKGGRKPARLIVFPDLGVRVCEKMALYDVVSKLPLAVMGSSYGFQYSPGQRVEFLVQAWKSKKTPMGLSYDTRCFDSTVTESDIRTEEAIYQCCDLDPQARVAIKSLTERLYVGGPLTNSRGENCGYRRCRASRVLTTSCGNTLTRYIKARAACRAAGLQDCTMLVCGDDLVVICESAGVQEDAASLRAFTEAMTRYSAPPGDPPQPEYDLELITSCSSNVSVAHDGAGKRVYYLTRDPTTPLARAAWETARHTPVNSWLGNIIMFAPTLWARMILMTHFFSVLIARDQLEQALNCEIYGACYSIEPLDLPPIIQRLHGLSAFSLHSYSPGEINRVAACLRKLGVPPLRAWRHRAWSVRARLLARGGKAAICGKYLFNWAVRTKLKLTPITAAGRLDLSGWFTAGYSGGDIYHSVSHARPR

COc1c(-c2ccc3cc(NS(C)(=O)=O)ccc3c2)cc(N2CCCNC2=O)cc1C(C)(C)C [compound 26, N-(6-(3-tert-butyl-2-methoxy-5-(2-oxotetrahydropyrimidin-1(2H)-yl)phenyl)naphthalen-2-yl)methanesulfonamide]
IC50 [1]: 10 to 100 nM | IC50 [2]: 10 to 100 nM | EC50 [3]: 10 to 100 nM | EC50 [4]: ≤ 10 nM

COc1c(-c2ccc3c(c2)CC=C3CNS(C)(=O)=O)cc(-c2c[nH]c(=O)[nH]c2=O)cc1C(C)(C)C [compound 3, N-((6-(3-tert-butyl-5-(2,4-dioxo-1,2,3,4-tetrahydropyrimidin-5-yl)-2-methoxyphenyl)-1H-inden-3-yl)methyl)methanesulfonamide]
IC50 [1]: < 10 nM | IC50 [2]: < 10 nM | EC50 [3]: ≤ 10 nM | EC50 [4]: ≤ 10 nM

COc1c(-c2ccc3cc(NS(C)(=O)=O)ccc3c2)cc(N2CCNC2=O)cc1C(C)(C)C [compound 27, N-(6-(3-tert-butyl-2-methoxy-5-(2-oxoimidazolidin-1-yl)phenyl)naphthalen-2-yl)methanesulfonamide]
IC50 [1]: 10 to 100 nM | IC50 [2]: 10 to 100 nM | EC50 [3]: 100 to 1000 nM | EC50 [4]: 10 to 100 nM

COc1c(-c2ccc3cc(NS(C)(=O)=O)ccc3c2)cc(N2CC(=O)NC2=O)cc1C(C)(C)C [compound 16, N-(6-(3-tert-butyl-5-(2,4-dioxoimidazolidin-1-yl)-2-methoxyphenyl)naphthalen-2-yl)methanesulfonamide]
IC50 [1]: 10 to 100 nM | IC50 [2]: 10 to 100 nM | EC50 [3]: 100 to 1000 nM | EC50 [4]: 100 to 1000 nM

COc1c(-c2ccc3cc(NS(C)(=O)=O)ccc3c2)cc(-c2c[nH]c(=O)[nH]c2=O)cc1-c1ccc(C)o1 [compound 42, N-(6-(5-(2,4-dioxo-1,2,3,4-tetrahydropyrimidin-5-yl)-2-methoxy-3-(5-methylfuran-2-yl)phenyl)naphthalen-2-yl)methanesulfonamide]
IC50 [1]: < 10 nM | IC50 [2]: 10 to 100 nM | EC50 [3]: 10 to 100 nM | EC50 [4]: ≤ 10 nM

COc1c(Br)cc(-c2c[nH]c(=O)[nH]c2=O)cc1C(F)(F)F [compound 48, 5-(3-bromo-4-methoxy-5-(trifluoromethyl)phenyl)pyrimidine-2,4(1H,3H)-dione]
IC50 [1]: > 1000 nM | IC50 [2]: > 1000 nM | EC50 [3]: > 1000 nM | EC50 [4]: > 1000 nM

COc1c(-c2ccc3cc(NS(C)(=O)=O)ccc3c2)cc(-c2c[nH]c(=O)[nH]c2=O)cc1C(F)(F)C(F)(F)F [compound 37, N-(6-(5-(2,4-dioxo-1,2,3,4-tetrahydropyrimidin-5-yl)-2-methoxy-3-(perfluoroethyl)phenyl)naphthalen-2-yl)methanesulfonamide]
IC50 [1]: < 10 nM | IC50 [2]: 10 to 100 nM | EC50 [3]: 100 to 1000 nM | EC50 [4]: 10 to 100 nM

COc1c(-c2ccoc2)cc(-c2c[nH]c(=O)[nH]c2=O)cc1-c1ccc2cc(NS(C)(=O)=O)ccc2c1 [compound 38, N-(6-(5-(2,4-dioxo-1,2,3,4-tetrahydropyrimidin-5-yl)-3-(furan-3-yl)-2-methoxyphenyl)naphthalen-2-yl)methanesulfonamide]
IC50 [1]: < 10 nM | IC50 [2]: 10 to 100 nM | EC50 [3]: 100 to 1000 nM | EC50 [4]: 10 to 100 nM

COc1c(-c2ccc3cc(NS(C)(=O)=O)ccc3c2)cc(-c2c[nH]c(=O)[nH]c2=O)cc1-c1cccs1 [compound 39, N-(6-(5-(2,4-dioxo-1,2,3,4-tetrahydropyrimidin-5-yl)-2-methoxy-3-(thiophen-2-yl)phenyl)naphthalen-2-yl)methanesulfonamide]
IC50 [1]: < 10 nM | IC50 [2]: < 10 nM | EC50 [3]: 10 to 100 nM | EC50 [4]: ≤ 10 nM

CCOC(=O)CCNC(=O)Nc1cc(-c2ccc3cc(NS(C)(=O)=O)ccc3c2)c(OC)c(C(C)(C)C)c1 [compound 21, ethyl 3-(3-(3-tert-butyl-4-methoxy-5-(6-(methylsulfonamido)naphthalen-2-yl)phenyl)ureido)propanoate]
IC50 [1]: 100 to 1000 nM | IC50 [2]: > 1000 nM | EC50 [3]: 100 to 1000 nM | EC50 [4]: 100 to 1000 nM

COc1c(-c2ccc3c(c2)CC=C3CNS(C)(=O)=O)cc(-c2c[nH]c(=O)[nH]c2=O)cc1-c1ccc(C)o1 [compound 44, N-((6-(5-(2,4-dioxo-1,2,3,4-tetrahydropyrimidin-5-yl)-2-methoxy-3-(5-methylfuran-2-yl)phenyl)-1H-inden-3-yl)methyl)methanesulfonamide]
IC50 [1]: 10 to 100 nM | IC50 [2]: 10 to 100 nM | EC50 [3]: 100 to 1000 nM | EC50 [4]: 10 to 100 nM

COc1c(-c2ccc3cc(NS(C)(=O)=O)ccc3c2)cc(N2CCOC2=O)cc1C(C)(C)C [compound 25, N-(6-(3-tert-butyl-2-methoxy-5-(2-oxooxazolidin-3-yl)phenyl)naphthalen-2-yl)methanesulfonamide]
IC50 [1]: 100 to 1000 nM | IC50 [2]: 100 to 1000 nM | EC50 [3]: > 1000 nM | EC50 [4]: > 1000 nM

COc1c(-c2ccc3c(c2)CC=C3CNS(C)(=O)=O)cc(-c2cn(C)c(=O)[nH]c2=O)cc1C(C)(C)C [compound 6, N-((6-(3-tert-butyl-2-methoxy-5-(1-methyl-2,4-dioxo-1,2,3,4-tetrahydropyrimidin-5-yl)phenyl)-1H-inden-3-yl)methyl)methanesulfonamide]
IC50 [1]: < 10 nM | IC50 [2]: 10 to 100 nM | EC50 [3]: 100 to 1000 nM | EC50 [4]: ≤ 10 nM

COc1c(Br)cc(-c2c[nH]c(=O)[nH]c2=O)cc1C(C)(C)C [compound 5, 5-(3-bromo-5-tert-butyl-4-methoxyphenyl)pyrimidine-2,4(1H,3H)-dione]
IC50 [1]: > 1000 nM | IC50 [2]: > 1000 nM | EC50 [3]: > 1000 nM | EC50 [4]: > 1000 nM

COc1c(-c2ccc3cc(NS(C)(=O)=O)ccc3c2)cc(-c2c[nH]c(=O)[nH]c2=O)cc1-c1cnn(C)c1 [compound 41, N-(6-(5-(2,4-dioxo-1,2,3,4-tetrahydropyrimidin-5-yl)-2-methoxy-3-(1-methyl-1H-pyrazol-4-yl)phenyl)naphthalen-2-yl)methanesulfonamide]
IC50 [1]: 100 to 1000 nM | IC50 [2]: 100 to 1000 nM | EC50 [3]: > 1000 nM | EC50 [4]: > 1000 nM

COc1c(-c2ccc3cc(NS(C)(=O)=O)ccc3c2)cc(NC(N)=O)cc1C(C)(C)C [compound 14, N-(6-(3-tert-butyl-2-methoxy-5-ureidophenyl)naphthalen-2-yl)methanesulfonamide]
IC50 [1]: < 10 nM | IC50 [2]: 10 to 100 nM | EC50 [3]: 100 to 1000 nM | EC50 [4]: 10 to 100 nM

CC(C)(C)c1cc(-c2c[nH]c(=O)[nH]c2=O)cc(-c2ccc3cc(NS(C)(=O)=O)ccc3c2)c1N [compound 33, N-(6-(2-amino-3-tert-butyl-5-(2,4-dioxo-1,2,3,4-tetrahydropyrimidin-5-yl)phenyl)naphthalen-2-yl)methanesulfonamide]
IC50 [1]: < 10 nM | IC50 [2]: 10 to 100 nM | EC50 [3]: 100 to 1000 nM | EC50 [4]: 10 to 100 nM
